ChEMBL document CHEMBL2375223, “Disulfide linked pyrazole derivatives inhibit phagocytosis of opsonized blood cells” (Bioorg Med Chem Lett, 2013)
The source made the active and inactive calls. The rule behind the calls is not given here.

Experiments:
[1] = biological target: High affinity immunoglobulin gamma Fc receptor I (Homo sapiens) (UniProt P12314); experiment: Inhibition of FCgamma receptor in human PBMC assessed as inhibition of opsonized RBC phagocytosis at 5 uM incubated for 1 hr prior to RBC addition measured after 2 hrs by monocyte monolayer assay relative to control
High affinity immunoglobulin gamma Fc receptor I (Homo sapiens), sequence (P12314 whole entry): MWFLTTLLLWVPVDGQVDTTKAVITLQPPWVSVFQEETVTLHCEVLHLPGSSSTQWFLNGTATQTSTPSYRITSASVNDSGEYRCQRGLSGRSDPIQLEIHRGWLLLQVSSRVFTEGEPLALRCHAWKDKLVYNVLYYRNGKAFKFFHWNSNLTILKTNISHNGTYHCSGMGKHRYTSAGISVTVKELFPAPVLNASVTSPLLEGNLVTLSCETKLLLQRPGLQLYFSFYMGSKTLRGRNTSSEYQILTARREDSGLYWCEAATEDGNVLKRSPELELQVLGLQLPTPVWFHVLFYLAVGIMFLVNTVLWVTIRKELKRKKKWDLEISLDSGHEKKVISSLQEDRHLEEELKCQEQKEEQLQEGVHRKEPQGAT

PBMC = experiment: Induction of apoptosis in human PBMC at 5 uM assessed as apoptotic index after 1 hr by Annexin V-APC/propidium iodide staining-based FACS analysis relative to IVIG; assay type: functional
[2] = biological target: High affinity immunoglobulin gamma Fc receptor I (Homo sapiens) (UniProt P12314); experiment: Inhibition of FCgamma receptor in human PBMC assessed as inhibition of opsonized RBC phagocytosis at 1 mM incubated for 1 hr prior to RBC addition measured after 2 hrs by monocyte monolayer assay relative to control

| Structure (SMILES) | inhibition [1] | fold change (FC) (PBMC) | inhibition [2] |
| --- | --- | --- | --- |
| Cc1cc(SSc2cc(C)nn2-c2ccccc2)n(-c2ccccc2)n1 | 43% | 2.78 |  |
| Cc1nn(-c2ccccc2)c(SSc2c(C(=O)c3ccccc3)c(C)nn2-c2ccccc2)c1C(=O)c1ccccc1 | 22% | 1.04 |  |
| Cc1nn(-c2ccccc2)c(S)c1C(=O)c1ccno1 | inactive |  |  |
| Cc1nn(-c2ccccc2)c(S)c1C(=O)c1ccccc1 | 0% | 1.29 | inactive |
| Cc1nn(-c2ccccc2)c(SSc2c(C(=O)N3CCCCC3)c(C)nn2-c2ccccc2)c1C(=O)N1CCCCC1 | 34% | 1.87 |  |
| Cc1nn(-c2ccccc2)c(SSc2c(C(=O)c3cccs3)c(C)nn2-c2ccccc2)c1C(=O)c1cccs1 | 19% | 0.69 |  |
| Cc1nn(-c2ccccc2)c(SSc2c(C(=O)N3CCOCC3)c(C)nn2-c2ccccc2)c1C(=O)N1CCOCC1 | 20% | 1.88 |  |
